The record followed here is patent publication US7514448B2, “Azaindoles useful as inhibitors of rock and other protein kinases” (Vertex Pharmaceuticals Incorporated, priority 2004, dated 2009).

pKi: −log10 of the molar value.

As usually defined, the pKi is −log10 of the Ki, conventionally taken in molar units.

One assay addresses PKA (Homo sapiens, UniProt P17612). Description: PKA inhibition assay, coupled enzyme. The following applies: average Ki if more than one determined. The format is biochemical. Here is the method: Compounds were screened for their ability to inhibit PKA using a standard coupled enzyme assay (Fox et al., Protein Sci, 1998, 7, 2249). Assays were carried out in a mixture of 100 mM HEPES (pH 7.5), 10 mM MgCl2, 25 mM NaCl, 1 mM DTT and 3% DMSO. Final substrate concentrations in the assay were 50 μM ATP (Sigma Chemicals) and 80 μM peptide (Kemptide, American Peptide, Sunnyvale, Calif.). Assays were carried out at 30° C. and 18 nM PKA. Final concentrations of the components of the coupled enzyme system were 2.5 mM phosphoenolpyruvate, 300 μM NADH, 30 μg/ml pyruvate kinase and 10 μg/ml lactate dehydrogenase.
An assay stock buffer solution was prepared containing all of the reagents listed above, with the exception of ATP, and the test compound of the present invention. […] The plate was preincubated for 10 minutes at 30° C. and the reaction initiated by addition of 5 μl of ATP (final concentration 50 μM). Initial reaction rates were determined with a Molecular Devices SpectraMax Plus plate reader over a 15 minute time course. IC50 and Ki data were calculated from non-linear regression analysis using the Prism software package (GraphPad Prism version 3.0a for Macintosh, GraphPad Software, San Diego Calif., USA).

The next assay concerns the target ROCK (Homo sapiens, UniProt Q13464). Put plainly: ROCK radioactive assay ("33P"). The format is biochemical. The following applies: radioactive assay; average Ki if more than one determined; read-out: ROCK 33P Ki. An excerpt: If more than one value of Ki has been determined, the average Ki is indicated. If no value is indicated, then the Ki was not determined.

Chain of ROCK (Q13464 whole entry): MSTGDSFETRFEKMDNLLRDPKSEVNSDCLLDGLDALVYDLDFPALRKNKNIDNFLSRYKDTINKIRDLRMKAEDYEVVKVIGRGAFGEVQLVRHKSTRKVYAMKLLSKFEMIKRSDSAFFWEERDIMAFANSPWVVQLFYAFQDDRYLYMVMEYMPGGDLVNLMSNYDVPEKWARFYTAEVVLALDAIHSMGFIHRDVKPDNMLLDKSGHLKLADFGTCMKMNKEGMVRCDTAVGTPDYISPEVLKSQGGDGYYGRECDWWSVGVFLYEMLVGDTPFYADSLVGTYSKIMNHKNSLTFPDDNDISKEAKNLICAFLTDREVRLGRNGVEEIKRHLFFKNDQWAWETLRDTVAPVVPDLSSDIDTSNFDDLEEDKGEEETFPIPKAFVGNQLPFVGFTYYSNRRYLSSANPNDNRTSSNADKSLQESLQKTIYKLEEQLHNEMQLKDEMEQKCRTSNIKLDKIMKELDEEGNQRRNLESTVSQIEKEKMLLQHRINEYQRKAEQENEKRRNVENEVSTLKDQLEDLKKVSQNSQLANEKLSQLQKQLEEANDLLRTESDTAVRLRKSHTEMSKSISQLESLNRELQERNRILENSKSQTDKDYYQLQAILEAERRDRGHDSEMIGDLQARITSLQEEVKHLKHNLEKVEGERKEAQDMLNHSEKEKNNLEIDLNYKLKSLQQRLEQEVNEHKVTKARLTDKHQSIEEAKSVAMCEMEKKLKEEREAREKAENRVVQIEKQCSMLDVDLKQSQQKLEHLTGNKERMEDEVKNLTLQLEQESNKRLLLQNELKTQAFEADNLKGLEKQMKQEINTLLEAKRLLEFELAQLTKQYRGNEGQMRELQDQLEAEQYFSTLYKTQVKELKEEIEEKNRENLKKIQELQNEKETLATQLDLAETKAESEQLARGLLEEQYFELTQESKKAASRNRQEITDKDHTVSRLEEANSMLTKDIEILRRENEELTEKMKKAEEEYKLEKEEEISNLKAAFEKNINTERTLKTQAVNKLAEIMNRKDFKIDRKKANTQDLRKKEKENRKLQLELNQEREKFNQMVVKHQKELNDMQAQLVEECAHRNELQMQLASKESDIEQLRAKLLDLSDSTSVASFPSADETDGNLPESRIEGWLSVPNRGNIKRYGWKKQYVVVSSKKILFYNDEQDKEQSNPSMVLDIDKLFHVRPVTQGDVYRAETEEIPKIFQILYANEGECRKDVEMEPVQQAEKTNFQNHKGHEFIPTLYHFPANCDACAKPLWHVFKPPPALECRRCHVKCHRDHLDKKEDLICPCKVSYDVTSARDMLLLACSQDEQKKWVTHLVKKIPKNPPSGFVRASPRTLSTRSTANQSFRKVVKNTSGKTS

`COc1cccc(CC(=O)Nc2nc(-c3c[nH]c4ncccc34)cs2)c1` [I-2] had a pKi at PKA of over 6.30. Same read-out and setting: in the case of `O=C(Cc1cccc(O)c1)Nc1nc(-c2c[nH]c3ncccc23)cs1` [I-12] it was over 6.30. In the case of `O=C(NCc1cccc(S(=O)(=O)N2CCOCC2)c1)c1csc(-c2c[nH]c3ncccc23)c1` [II-130], the pKi on ROCK is over 6.30; at PKA, 5.30 to 6.30. Turning to `O=C(Cc1ccccc1)Nc1nc(-c2c[nH]c3ncc(O)cc23)cs1` [II-131], the pKi at ROCK and on PKA was over 6.30 each time. Take `CS(=O)(=O)Nc1cccc(CC(=O)Nc2nc(-c3c[nH]c4ncc(O)cc34)cs2)c1` [II-132]: the figures for the pKi at ROCK and at PKA were over 6.30 and 5.30 to 6.30, respectively. As for `N#CC1(C(=O)Nc2nc(-c3c[nH]c4ncccc34)cs2)CC1` [II-133], the pKi at ROCK and on PKA was over 6.30 throughout.

Regarding `CC(=O)Nc1nc(-c2c[nH]c3ncccc23)cs1` [II-134], the pKi at ROCK was over 6.30; at PKA, 5.30 to 6.30.

Consider `O=C(Cc1cccc(OCCCC2CCNCC2)c1)Nc1nc(-c2c[nH]c3ncc(F)cc23)cs1` [II-135], for which the pKi on ROCK and on PKA was over 6.30 throughout.

Take `CN1CCN(CCOc2cccc(CC(=O)Nc3nc(-c4c[nH]c5ncc(F)cc45)cs3)c2)CC1` [II-136]: the pKi on ROCK is over 6.30; on PKA it was 5.30 to 6.30. For the molecule `CN1CCN(CCCOc2cccc(CC(=O)Nc3nc(-c4c[nH]c5ncc(F)cc45)cs3)c2)CC1` [II-137], the results for the pKi on ROCK and at PKA were over 6.30 and 5.30 to 6.30, respectively. Taken in the same sequence, the figures for `COCC(=O)Nc1nc(-c2c[nH]c3ncccc23)cs1` [II-142] were over 6.30 and 5.30 to 6.30. Consider `CC(O)C(=O)Nc1nc(-c2c[nH]c3ncccc23)cs1` (stereo not shown) [II-143], for which the pKi at ROCK was over 6.30; on PKA it was 5.30 to 6.30. Take `CO[C@@H](C)C(=O)Nc1nc(-c2c[nH]c3ncccc23)cs1` [II-144]: the pKi was over 6.30 on ROCK and 5.30 to 6.30 at PKA. With `CC(=O)N[C@@H](C)C(=O)Nc1nc(-c2c[nH]c3ncccc23)cs1` [II-145], the values for the pKi on ROCK and on PKA were over 6.30 and 5.30 to 6.30, respectively. The corresponding values for `O=C1CC[C@@H](C(=O)Nc2nc(-c3c[nH]c4ncccc34)cs2)O1` [II-146] are over 6.30 and 5.30 to 6.30. The corresponding values for `O=C1NCC(C(=O)Nc2nc(-c3c[nH]c4ncccc34)cs2)N1` (stereo not shown) [II-147] are over 6.30 and over 6.30.

Consider `O=C1CC[C@@H](C(=O)Nc2nc(-c3c[nH]c4ncccc34)cs2)N1` [II-148], for which the negative logarithm of the Ki (pKi) on ROCK and at PKA was over 6.30 throughout. Regarding `CC(=O)NCC(=O)Nc1nc(-c2c[nH]c3ncccc23)cs1` [II-149], the pKi at ROCK is over 6.30; on PKA, 5.30 to 6.30. Taken in the same sequence, the figures for `COc1ccc(CC(=O)Nc2nc(-c3c[nH]c4ncc(F)cc34)cs2)c(Cl)c1` [II-150] were over 6.30 and over 6.30. As for `CS(=O)(=O)Nc1ccc(F)c(CC(=O)Nc2nc(-c3c[nH]c4ncc(F)cc34)cs2)c1` [II-151], the pKi on ROCK and on PKA was over 6.30 each time. For `O=C1C[C@H](C(=O)Nc2nc(-c3c[nH]c4ncccc34)cs2)N1` [II-152], the pKi on ROCK and at PKA was over 6.30 in each case. On to `O=C1CCC(C(=O)Nc2nc(-c3c[nH]c4ncccc34)cs2)N1` (stereo not shown) [II-153], for which the pKi was over 6.30 at ROCK and 5.30 to 6.30 at PKA.

As for `O=C(Nc1nc(-c2c[nH]c3ncccc23)cs1)C1CCCO1` (stereo not shown) [II-154], the pKi on ROCK and at PKA was over 6.30 in each case. On to `O=C1CC[C@H](C(=O)Nc2nc(-c3c[nH]c4ncccc34)cs2)O1` [II-155], for which the pKi on ROCK and at PKA was over 6.30 throughout.

As for `CC(=O)N[C@H](C)C(=O)Nc1nc(-c2c[nH]c3ncccc23)cs1` [II-156], the pKi was over 6.30 at ROCK and 5.30 to 6.30 on PKA. The corresponding values for `O=C(CO)Nc1nc(-c2c[nH]c3ncccc23)cs1` [II-157] are over 6.30 and 5.30 to 6.30. The corresponding values for `O=C(Nc1nc(-c2c[nH]c3ncccc23)cs1)C1(O)CC1` [II-158] are over 6.30 and over 6.30. Turning to `CC(C)C(O)C(=O)Nc1nc(-c2c[nH]c3ncccc23)cs1` (stereo not shown) [II-159], the pKi at ROCK and on PKA was over 6.30 in each case. As to `CC(C)CC(=O)C(=O)Nc1nc(-c2c[nH]c3ncccc23)cs1` [II-160], the pKi on ROCK and at PKA was over 6.30 in each case.

With `CS(=O)(=O)CC(=O)Nc1nc(-c2c[nH]c3ncccc23)cs1` [II-161], the negative-log Ki (pKi) on ROCK and on PKA was over 6.30 throughout. For the molecule `CCC(=O)Nc1nc(-c2c[nH]c3ncccc23)cs1` [II-163], the pKi at ROCK was over 6.30; on PKA, 5.30 to 6.30. Taken in the same sequence, the figures for `CC(=O)NCCC(=O)Nc1nc(-c2c[nH]c3ncccc23)cs1` [II-164] were over 6.30 and 5.30 to 6.30. Taken in the same sequence, the figures for `NCC(=O)Nc1nc(-c2c[nH]c3ncccc23)cs1` [II-165] were over 6.30 and over 6.30. Taken in the same sequence, the figures for `CC(C)C[C@H](N)C(=O)Nc1nc(-c2c[nH]c3ncccc23)cs1` [II-166] were over 6.30 and over 6.30. Consider `CN1CCN(CCCS(=O)(=O)Nc2cccc(CC(=O)Nc3nc(-c4c[nH]c5ncccc45)cs3)c2)CC1` [II-167], for which the pKi on ROCK and at PKA was over 6.30 throughout.

Turning to `O=C(Cc1cccc(NS(=O)(=O)CCCN2CCCCC2)c1)Nc1nc(-c2c[nH]c3ncccc23)cs1` [II-168], the pKi at ROCK and on PKA was over 6.30 throughout. On to `O=C(Cc1cccc(NS(=O)(=O)CCCN2CCOCC2)c1)Nc1nc(-c2c[nH]c3ncccc23)cs1` [II-169], for which the negative-log Ki (pKi) on ROCK and at PKA was over 6.30 each time.

Regarding `O=C(Nc1nc(-c2c[nH]c3ncccc23)cs1)[C@@H]1CCCN1` [II-171], the pKi on ROCK and at PKA was over 6.30 each time. Consider `O=C(Nc1nc(-c2c[nH]c3ncccc23)cs1)C1CCOC1` (stereo not shown) [II-172], for which the pKi on ROCK and at PKA was over 6.30 throughout.

As for `O=C(Nc1nc(-c2c[nH]c3ncccc23)cs1)C1CCCNC1` (stereo not shown) [II-173], the negative logarithm of the Ki (pKi) at ROCK and at PKA was over 6.30 in each case.

Consider `O=C(Nc1nc(-c2c[nH]c3ncccc23)cs1)C1CCNCC1` [II-174], for which the results for the pKi on ROCK and at PKA were over 6.30 and 5.30 to 6.30, respectively. Regarding `O=C(Nc1nc(-c2c[nH]c3ncccc23)cs1)C1CCOCC1` [II-175], the pKi at ROCK and on PKA was over 6.30 each time. Regarding `N[C@@H](Cc1ccccc1)C(=O)Nc1nc(-c2c[nH]c3ncccc23)cs1` [II-176], the pKi on ROCK and at PKA was over 6.30 each time. As to `N[C@H](Cc1ccccc1)C(=O)Nc1nc(-c2c[nH]c3ncccc23)cs1` [II-177], the pKi on ROCK and at PKA was over 6.30 throughout.

With `CN[C@@H](Cc1ccccc1)C(=O)Nc1nc(-c2c[nH]c3ncccc23)cs1` [II-178], the pKi at ROCK and at PKA was over 6.30 in each case. For the molecule `CNCC(=O)Nc1nc(-c2c[nH]c3ncccc23)cs1` [II-179], the pKi at ROCK and at PKA was over 6.30 in each case.

For `NCCC(=O)Nc1nc(-c2c[nH]c3ncccc23)cs1` [II-180], the pKi at ROCK and at PKA was over 6.30 each time. On to `O=C(c1nc(-c2c[nH]c3ncccc23)cs1)N1CCNCC1` [II-181], for which the pKi on ROCK and on PKA was over 6.30 in each case.
